Experimental data from patent US9045507B2, “Coumarin-based amino acids for use in enzyme activity and substrate specificity assays” (UNIVERSITY OF SOUTHERN CALIFORNIA, priority 2005, dated 2015).
Where a SMILES comes first, the peptide text is derived from it. [ ]: non-standard residue; d: D form. pY = N[C@@H](Cc1ccc(OP(=O)(O)O)cc1)C(=O)O

Key:
Type in all cases: biochemical
[1] = target: T1, Protein tyrosine phosphatase from Yersinia enterocolitica (YOP) (Yersinia enterocolitica, UniProt P15273); assay: Enzyme activity assay: PTP-catalyzed hydrolysis of substrates by YOP; settings: pH 7.1, room temperature; for Km: read-out: Km (best fit to the Michaelis-Menten equation)
T1 construct: purchased Calbiochem
T1 sequence (P15273 whole entry): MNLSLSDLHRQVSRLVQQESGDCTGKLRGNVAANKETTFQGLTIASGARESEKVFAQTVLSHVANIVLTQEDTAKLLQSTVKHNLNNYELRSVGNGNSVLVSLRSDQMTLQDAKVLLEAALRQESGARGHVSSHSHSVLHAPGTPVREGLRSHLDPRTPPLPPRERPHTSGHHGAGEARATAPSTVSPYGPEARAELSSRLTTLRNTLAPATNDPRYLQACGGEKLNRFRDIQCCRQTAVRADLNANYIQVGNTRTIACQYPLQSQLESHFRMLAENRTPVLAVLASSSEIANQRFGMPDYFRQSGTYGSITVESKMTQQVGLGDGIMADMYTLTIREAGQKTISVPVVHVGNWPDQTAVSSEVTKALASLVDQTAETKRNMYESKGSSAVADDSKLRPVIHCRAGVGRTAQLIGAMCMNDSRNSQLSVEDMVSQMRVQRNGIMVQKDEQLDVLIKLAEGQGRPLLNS
Excerpt: (§1) Protein tyrosine phosphatase from Yersinia enterocolitica (YOP)^16 and human T-cell PTP (TCPTP)^17 were obtained from Calbiochem in purified form and used as received. Reagents for solid phase peptide synthesis including Fmoc protected amino acids and Rink Amide resin were obtained from Novabiochem and used without further purification. Trichloroethanol (TCE), resorcinol, dicyclohexylcarbodiimide (DCC) and N,N-dimethylaminopyridine (DMAP) were obtained from Lancaster, isopropenyl chloroformate (IPCF) from Acros Organics, trifluoroacetic acid (TFA) from Oakwood Chemicals and methanesulfonic acid, diethyl chlorophosphate and zinc dust were obtained from Aldrich Chemical Company. Dry solvents were obtained from VWR and Aldrich. Fluorinated resorcinols were synthesized according to a literature procedure.^18 All of the chemicals were used as received, except zinc, which was activated prior to use by washing with 20% HCl, followed by water and acetone.
^1H, ^13C, and ^31P NMR spectra were recorded on Bruker AC 250, Bruker AC 360 and Varian 400 MHz instruments. Peptides were purified on a Varian ProStar 210 HPLC system using a preparative-scale C18 reverse-phase column. Mass spectrometric characterization was carried out using an Applied Biosystems Voyager-DE STR MALDI-TOF instrument with α-cyanohydroxycinnamic acid as the matrix. Enzyme assays with fluorogenic substrates were performed on a Molecular Devices Analyst AD multimode plate reader in fluorescence mode with an excitation filter, emission filter and dichroic mirror at 360 nm, 425 nm, and 400 nm, respectively. Enzymatic hydrolysis of the phosphotyrosine-containing peptide DADE-phpsphotyrosine-GPAA (9a) was followed by observing an increase in absorbance at 280 nm using a Varian Cary50 spectrophotometer.
Standard conditions employed to determine the kinetic constants of each substrate with YOP and TCPTP are described below. Substrates were dissolved in DMSO and diluted to the appropriate concentration in DMSO. Aliquots were taken such that each reaction had the same amount of DMSO, which never exceeded 5% of the reaction volume (usually 200 μL). The buffer used for all studies contained 50 mM HEPES, pH 7.1, 100 mM NaCl, 2 mM EDTA, 0.01% Brij 35, 1 mM dithiothreitol (DTT). Prior to each reaction, the enzyme was incubated in buffer with freshly added DTT for 10 min on ice. […] The increase in signal (absorbance or fluorescence) due to substrate hydrolysis was measured every 60 s for 30 min. […] Standard curves were prepared using authentic samples of the appropriate product, relative fluorescence or absorbance units were converted into concentration of product formed, and the resulting data was fit to the Michaelis-Menten equation, providing kinetic parameters for each substrate.

[2] = target: T2, human T-cell PTP (TCPTP) (Homo sapiens, UniProt P17706); assay: Enzyme activity assay: PTP-catalyzed hydrolysis of substrates by TCPTP; settings: pH 7.1, 30° C.
T2 construct: purchased Calbiochem
T2 sequence (P17706 1-415): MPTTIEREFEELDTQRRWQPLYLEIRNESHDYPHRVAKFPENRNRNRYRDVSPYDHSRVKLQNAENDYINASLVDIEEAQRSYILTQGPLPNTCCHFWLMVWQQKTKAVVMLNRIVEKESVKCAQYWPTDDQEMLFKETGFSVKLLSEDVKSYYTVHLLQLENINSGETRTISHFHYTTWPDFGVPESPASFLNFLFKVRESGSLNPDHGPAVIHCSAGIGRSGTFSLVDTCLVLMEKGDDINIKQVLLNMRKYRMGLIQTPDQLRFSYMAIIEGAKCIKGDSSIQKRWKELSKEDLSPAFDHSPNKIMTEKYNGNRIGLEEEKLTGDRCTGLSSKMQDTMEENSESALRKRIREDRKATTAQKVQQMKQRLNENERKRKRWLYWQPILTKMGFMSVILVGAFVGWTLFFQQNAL
Excerpt: as §1, with “Fluorinated resorcinols were synthesized according to a literature procedure.^18 All of the chemicals were used as received, except zinc, which was activated prior to use by washing with 20% HCl, followed by water and acetone.” left out
^1H, ^13C, and ^31P NMR spectra were recorded on Bruker AC 250, Bruker AC 360 and Varian 400 MHz instruments. […] Enzyme assays with fluorogenic substrates were performed on a Molecular Devices Analyst AD multimode plate reader in fluorescence mode with an excitation filter, emission filter and dichroic mirror at 360 nm, 425 nm, and 400 nm, respectively. Enzymatic hydrolysis of the phosphotyrosine-containing peptide DADE-phpsphotyrosine-GPAA (9a) was followed by observing an increase in absorbance at 280 nm using a Varian Cary50 spectrophotometer. […]

[3] = target: protein tyrosine kinase Csk (Homo sapiens, UniProt P41240); assay: Kinase assay: MU as substrate for Csk; settings: fluorescence decrease, ATP, pH 6.8
Sequence of protein tyrosine kinase Csk (P41240 whole entry): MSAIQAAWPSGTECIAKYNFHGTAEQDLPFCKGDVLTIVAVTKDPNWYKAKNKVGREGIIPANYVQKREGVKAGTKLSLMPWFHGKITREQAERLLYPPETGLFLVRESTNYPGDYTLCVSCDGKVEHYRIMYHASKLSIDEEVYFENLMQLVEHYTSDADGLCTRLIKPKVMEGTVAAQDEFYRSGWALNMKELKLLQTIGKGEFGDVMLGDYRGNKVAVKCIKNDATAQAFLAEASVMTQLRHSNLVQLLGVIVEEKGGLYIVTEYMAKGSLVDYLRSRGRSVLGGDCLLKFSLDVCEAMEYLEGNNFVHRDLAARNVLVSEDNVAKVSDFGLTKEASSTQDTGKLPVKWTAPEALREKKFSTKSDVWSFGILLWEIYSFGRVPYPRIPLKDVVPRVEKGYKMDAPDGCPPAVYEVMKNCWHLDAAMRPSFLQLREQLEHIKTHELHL
Protocol: Currently kinases assays are done using radioactive ATP. We envision that a highly sensitive fluorescence based assay would be more convenient. MU, an analog of CAP, was tested as a substrate for the protein tyrosine kinase Csk, to check the viability of the idea (FIG. 8). […] In addition, the fluorinated derivatives also serve as sensitive fluorescent assays for PTK activity.
Stock solutions of MU were prepared in DMSO to make 1 and 10 mM solutions. For enzymatic assays, various aliquots of each substrate and DMSO (to a total of 5 μL) were placed on a 96 well plate, incubated with 75 μL buffer (30 mM HEPES, 5 mM MgCl2, 0.01% Brij 35, pH 6.8) for 5 mins, treated with 1 μL of 10 mM ATP, followed by 20 μL of 12.8 nM Csk. The decrease in signal (fluorescence) due to substrate phosphorylation was measured every 60 s for 30 min. Each reaction was run in triplicate and the results averaged. Standard curves were prepared using authentic samples of the appropriate substrate, relative fluorescence units were converted into concentration of substrate left unreacted, and the resulting data was fit to the Michaelis-Menten equation, providing kinetic parameters for each substrate.

C[C@H](NC(=O)[C@H](C)NC(=O)[C@@H]1CCCN1C(=O)CNC(=O)[C@H](Cc1ccc(OP(=O)(O)O)cc1)NC(=O)[C@H](CCC(=O)O)NC(=O)[C@H](CC(=O)O)NC(=O)[C@H](C)NC(=O)[C@@H](N)CC(=O)O)C(N)=O [9a, DADE-pY-GPAA-NH2] (H-DADE[pY]GPAA-NH2)
kcat (best fit to the Michaelis-Menten equation) [1]: 100 ± 20 s⁻¹
Km [1]: 2700 ± 800 µM

Cc1cc(=O)oc2cc(OP(=O)(O)O)ccc12 [MUP]
kcat (best fit to the Michaelis-Menten equation) [1]: 5.7 ± 0.5 s⁻¹
Km [1]: 800 ± 200 µM

DADE-pCAP-GPAA-NH2 [10a]
kcat (best fit to the Michaelis-Menten equation) [2]: 35 ± 10 s⁻¹
Km ([2]; read-out: Km (best fit to the Michaelis-Menten equation)): 800 ± 300 µM

Cc1cc(=O)oc2cc(O)ccc12 [MU, 4-methylumbelliferone]
phosphorylation of substrate by Csk [3]: Csk indeed phosphorylated MU to MUP
